pEC50: −log10 of the molar value.
Columns and labels:
P. falciparum = test: EC50 listed in S2 Table Metabolomics (used to set the concentration tested); format: cell-based; settings: Plasmodium falciparum; EC50 used for Factor_XEC50 in metabolomics; read-out: EC50_nM
[1] = tested on: P. falciparum 3D7 trophozoites; test: Metabolomic fingerprint profiling LC-MS; format: cell-based, Plasmodium falciparum; design: UDP-D-glucose / ADP-D-glucose: unit not given here; settings: for Acetyllysine / N-acetyl-L-ornithine / N-carbamoyl-L-aspartate / NADPH / dAMP / dCMP / dTDP / dTMP / dTTP / dihydroorotate / orotate / DLH / DLS/SDL/SID / PD / PEE / PVNF / 3-phosphoglycerate / ADP-D-glucose / ATP / CDP / D-sedoheptulose-1/7-phosphate / FAD / GMP / NAD+ / NADP+ / Octoluse Bisphosphate / Pyroglutamic acid / UDP-D-glucose / UDP-D-glucuronate / UDP-N-acetyl-glucosamine / UDP / UMP / UTP / a-ketoglutarate / citrate/isocitrate / cytidine / dATP / dGMP/AMP / fumarate / glucose-1/6-phosphate / glycerate / guanine / guanosine / hypoxanthine / indole / inosine / nicotinate / ornithine / phosphoenolpyruvate / pyruvate / ribose-phosphate / sarcosine/alanine / sn-glycerol-3-phosphate / succinate/methylmalonic acid / uridine / xanthosine: S2 Table Metabolomics; for Acetyllysine: metabolite Acetyllysine; for N-acetyl-L-ornithine: metabolite N-acetyl-L-ornithine; for N-carbamoyl-L-aspartate: metabolite N-carbamoyl-L-aspartate; for NADPH: metabolite NADPH; for dAMP: metabolite dAMP; for dCMP: metabolite dCMP; for dTDP: metabolite dTDP; for dTMP: metabolite dTMP; for dTTP: metabolite dTTP; for dihydroorotate: metabolite dihydroorotate; for orotate: metabolite orotate; for DLH: peptide DLH; for DLS/SDL/SID: peptide DLS/SDL/SID; for PD: peptide PD; for PEE: peptide PEE; for PVNF: peptide PVNF; for 3-phosphoglycerate: metabolite 3-phosphoglycerate; for ADP-D-glucose: metabolite ADP-D-glucose; for ATP: metabolite ATP; for CDP: metabolite CDP; for CDP / D-sedoheptulose-1/7-phosphate / GMP / Octoluse Bisphosphate / UDP / UMP / UTP / citrate/isocitrate / dGMP/AMP / fumarate / glucose-1/6-phosphate / glycerate / guanine / guanosine / inosine / pyruvate / sarcosine/alanine / succinate/methylmalonic acid / uridine / xanthosine: change in metabolite level after compound treatment; for D-sedoheptulose-1/7-phosphate: metabolite D-sedoheptulose-1/7-phosphate; for FAD: metabolite FAD; for GMP: metabolite GMP; for NAD+: metabolite NAD+; for NADP+: metabolite NADP+; for Octoluse Bisphosphate: metabolite Octoluse Bisphosphate; for Pyroglutamic acid: metabolite Pyroglutamic acid; for UDP-D-glucose: metabolite UDP-D-glucose; for UDP-D-glucuronate: metabolite UDP-D-glucuronate; for UDP-N-acetyl-glucosamine: metabolite UDP-N-acetyl-glucosamine; for UDP: metabolite UDP; for UMP: metabolite UMP; for UTP: metabolite UTP; for a-ketoglutarate: metabolite a-ketoglutarate; for citrate/isocitrate: metabolite citrate/isocitrate; for cytidine: metabolite cytidine; for dATP: metabolite dATP; for dGMP/AMP: metabolite dGMP/AMP; for fumarate: metabolite fumarate; for glucose-1/6-phosphate: metabolite glucose-1/6-phosphate; for glycerate: metabolite glycerate; for guanine: metabolite guanine; for guanosine: metabolite guanosine; for hypoxanthine: metabolite hypoxanthine; for indole: metabolite indole; for inosine: metabolite inosine; for 2_3-Diphosphoglyceric acid / 4-phosphopantothenate / 6-phospho-D-gluconate / FMN / IMP / Pyrophosphate / Sedoheptoluse bisphosphate / cyclic-AMP / glutathione disulfide / lactate / myo-inositol: metabolite level change after treatment; for nicotinate: metabolite nicotinate; for ornithine: metabolite ornithine; for phosphoenolpyruvate: metabolite phosphoenolpyruvate; for pyruvate: metabolite pyruvate; for ribose-phosphate: metabolite ribose-phosphate; for sarcosine/alanine: metabolite sarcosine/alanine; for sn-glycerol-3-phosphate: metabolite sn-glycerol-3-phosphate; for succinate/methylmalonic acid: metabolite succinate/methylmalonic acid; for uridine: metabolite uridine; for xanthosine: metabolite xanthosine

CCc1c(C)c(=N)c2ccccc2n1C [MMV006278]
pEC50 (P. falciparum): 6.42 | Acetyllysine [1]: -0.2738 | N-acetyl-L-ornithine [1]: -0.3387 | N-carbamoyl-L-aspartate [1]: 0.04339 | NADPH [1]: -0.1545 | dAMP [1]: -0.2592 | dCMP [1]: 0.05199 | dTDP [1]: -0.2955 | dTMP [1]: -0.278 | dTTP [1]: 0.1315 | dihydroorotate [1]: 0.1029 | orotate [1]: -0.07528 | DLH [1]: 0.1151 | DLS/SDL/SID [1]: -0.1067 | PD [1]: -0.1923 | PEE [1]: 0.09363 | PVNF [1]: -0.2186 | 3-phosphoglycerate [1]: -0.1758 | ADP-D-glucose [1]: -0.3132 | ATP [1]: -0.07819 | CDP [1]: -0.1774 | D-sedoheptulose-1/7-phosphate [1]: -0.2519 | FAD [1]: -0.07776 | GMP [1]: -0.3571 | NAD+ [1]: -0.07608 | NADP+ [1]: -0.2182 | Octoluse Bisphosphate [1]: -0.2383 | Pyroglutamic acid [1]: -0.07564 | UDP-D-glucose [1]: -0.16 | UDP-D-glucuronate [1]: -0.1623 | UDP-N-acetyl-glucosamine [1]: -0.2266 | UDP [1]: -0.2326 | UMP [1]: -0.3171 | UTP [1]: 0.05042 | a-ketoglutarate [1]: 0.05252 | citrate/isocitrate [1]: 0.03563 | cytidine [1]: -0.182 | dATP [1]: 0.1448 | dGMP/AMP [1]: -0.3534 | fumarate [1]: -0.3107 | glucose-1/6-phosphate [1]: -0.535 | glycerate [1]: -0.4983 | guanine [1]: -0.2094 | guanosine [1]: -0.1411 | hypoxanthine [1]: 0.04937 | indole [1]: -0.04764 | inosine [1]: -0.3767 | 2_3-Diphosphoglyceric acid [1]: -0.2671 | 4-phosphopantothenate [1]: -0.1093 | 6-phospho-D-gluconate [1]: -0.1749 | FMN [1]: 0.06658 | IMP [1]: -0.1794 | Pyrophosphate [1]: -0.2417 | Sedoheptoluse bisphosphate [1]: -0.1437 | cyclic-AMP [1]: -0.03098 | glutathione disulfide [1]: -0.1999 | lactate [1]: 0.04854 | myo-inositol [1]: 0.07173 | nicotinate [1]: -0.02818 | ornithine [1]: 0.04171 | phosphoenolpyruvate [1]: -0.1381 | pyruvate [1]: -0.06156 | ribose-phosphate [1]: 0.02401 | sarcosine/alanine [1]: -0.2797 | sn-glycerol-3-phosphate [1]: -0.6565 | succinate/methylmalonic acid [1]: -0.7483 | uridine [1]: -0.02002 | xanthosine [1]: -0.104

COc1cc(OC)c(N(C)C(=O)c2cc3c(s2)-c2ccccc2S(=O)(=O)C3)cc1Cl [MMV006427]
pEC50 (P. falciparum): 7.11 | Acetyllysine [1]: -3.0678 | N-acetyl-L-ornithine [1]: -2.077 | N-carbamoyl-L-aspartate [1]: -3.4047 | NADPH [1]: -0.4646 | dAMP [1]: 2.306 | dCMP [1]: 1.395 | dTDP [1]: 3.378 | dTMP [1]: 4.553 | dTTP [1]: 1.85 | dihydroorotate [1]: -2.575 | orotate [1]: 0.4264 | DLH [1]: -5.058 | DLS/SDL/SID [1]: -4.1926 | PD [1]: -1.1837 | PEE [1]: -3.666 | PVNF [1]: -5.242 | 3-phosphoglycerate [1]: 0.1517 | ADP-D-glucose [1]: -0.124 | ATP [1]: -1.807 | CDP [1]: 0.8052 | D-sedoheptulose-1/7-phosphate [1]: -0.2773 | FAD [1]: -1.0601 | GMP [1]: -2.558 | NAD+ [1]: 0.783 | NADP+ [1]: 0.3092 | Octoluse Bisphosphate [1]: -2.061 | Pyroglutamic acid [1]: -0.1068 | UDP-D-glucose [1]: 0.214 | UDP-D-glucuronate [1]: -0.1144 | UDP-N-acetyl-glucosamine [1]: 0.3636 | UDP [1]: 0.3063 | UMP [1]: 0.3348 | UTP [1]: -0.8427 | a-ketoglutarate [1]: -0.411 | citrate/isocitrate [1]: 0.0762 | cytidine [1]: 0.3423 | dATP [1]: -0.2111 | dGMP/AMP [1]: -0.9855 | fumarate [1]: -0.3788 | glucose-1/6-phosphate [1]: -0.5462 | glycerate [1]: -0.8092 | guanine [1]: 0.1326 | guanosine [1]: 0.04127 | hypoxanthine [1]: -0.06662 | indole [1]: -0.3106 | inosine [1]: 0.06183 | 2_3-Diphosphoglyceric acid [1]: -0.9034 | 4-phosphopantothenate [1]: -0.1012 | 6-phospho-D-gluconate [1]: -0.09619 | FMN [1]: 0.1283 | IMP [1]: 0.7504 | Pyrophosphate [1]: -1.05 | Sedoheptoluse bisphosphate [1]: -0.7918 | cyclic-AMP [1]: -0.9224 | glutathione disulfide [1]: -0.1859 | lactate [1]: -1.014 | myo-inositol [1]: -1.304 | nicotinate [1]: 0.5771 | ornithine [1]: 0.02692 | phosphoenolpyruvate [1]: 0.2074 | pyruvate [1]: -1.66 | ribose-phosphate [1]: -0.6233 | sarcosine/alanine [1]: -1.711 | sn-glycerol-3-phosphate [1]: 0.334 | succinate/methylmalonic acid [1]: 0.04426 | uridine [1]: -0.5041 | xanthosine [1]: -1.485

Reference: publication PMC4965013, “Open Source Drug Discovery with the Malaria Box Compound Collection for Neglected Diseases and Beyond” (PLoS Pathogens, 2016)
